Experimental findings from patent US20130059787A1, “METHODS OF USING HUMAN PROTEIN KINASE C DELTA VIII AS A BIOMARKER” (UNITED STATES DEPARTMENT OF VETERAN AFFAIRS, priority 2010, published 2013) are described below.

One assay deals with PKCδVIII mRNA. The assay can be described thus: Quantitative real-time RT-PCR (SYBR Green) in primary human neuronal cells from hippocampus. Type of assay: cell-based. The note with it: RA about 10 μM, about 24 h. An excerpt:
(§1) FIG. 1 is a series of images illustrating the alternative splice site in human PKC δ. (a) schematic of alternative 5′ splice site selection in human PKCδ pre-mRNA exon 10 that results in the generation of PKCδI mRNA and PKCδVIII mRNA, which differ by about 93 bp in the V3 hinge region. RA promotes expression of PKCδVIII mRNA. SSI: 5′ splice site I; SSII: 5′ splice site II. (b) schematic of the primers specific for PKC δI and PKC δVIII used in real time RT-PCR such that they span the exon-exon boundaries. (c) primary human neuronal cells from hippocampus were treated with or without RA (about 10 μM) for about 24 h. […]
(§2) cDNA (about 2 μl) was amplified by real-time quantitative PCR using Syber (SYBR) Green with an ABI PRISM 7900 sequence detection system (PE Applied Biosystems, Foster City, Calif.) as described previously to quantify absolute levels of PKCδI and PKCδVIII mRNA in the samples (Jiang, K., Apostolatos, A. H., Ghansah, T., Watson, J. E., Vickers, T., Cooper, D. R., Epling-Burnette, P. K., and Patel, N. A. (2008) Biochemistry 47, 787-797). […]
(§3) sense primer 5′-[…]-3′(SEQ ID No: 6) and antisense primer 5′-[…]-3′ (SEQ ID No: 7). […] Absolute quantification of mRNA expression levels for PKCδI and PKCδVIII was calculated by normalizing the values to GAPDH. The results were analyzed with two-tailed Student's t test using PRISM4 statistical analysis software (GraphPad, San Diego, Calif.). […]
Background: Quantitative PCR measures a nucleic acid by following its amplification.

The test system of another assay is PKCδI mRNA. The description is as above. The note with it: RA about 10 μM, about 24 h. Type of assay: cell-based.
Excerpt: as §1, §2, §3

Regarding `CC1=C(/C=C/C(C)=C/C=C/C(C)=C/C(=O)O)C(C)(C)CCC1` [RA, all-trans-retinoic acid], the “absolute mRNA expression of PKCδVIII normalized to GAPDH” value with PKCδVIII mRNA is reported as “increased”. In the assay with PKCδI mRNA, the “absolute mRNA expression of PKCδI normalized to GAPDH” value is recorded as “remain constant”.
